Results taken from article PMC8878317, “Chemogenomics identifies acetyl-coenzyme A synthetase as a target for malaria treatment and prevention” (Cell Chemical Biology, 2022).

Tests used:
P. falciparum 3D7-A10 = test: Blood-stage dose-response assay (SYBR Green I, 72 hr), 3D7 / 3D7-A10 parent; type: cell-based; conditions: Plasmodium falciparum, mean ± SD, n bioreplicates, read-out: 3D7-A10 parent EC50 ± SD
Experimental: (§1) The 3D7-A10 clone has been used in previous in vitro drug selection and sequencing efforts ([Cowell et al., 2018]). Dd2 parasites were obtained from T. Wellems (NIAID, NIH). Dd2-B2 is a genetically homogeneous line that was cloned from Dd2 by limiting dilution in the Fidock lab. Parasite strains were cultured in 3-5% human O+ hematocrit in RPMI 1640 (Life Technologies) supplemented with 28 mM NaHCO3, 25 mM HEPES, and hypoxanthine ([…]). Depending on the parasite line, the media either contained gentamycin (25 μg/mL), or no antibiotic and was additionally supplemented with 0.5% AlbuMAX II (Life Technologies) and/or O+ human serum (heat inactivated and pooled). Blood and serum products were obtained from Interstate Blood Bank. Cultures were maintained at 37°C in 1.1% O2, 4% CO2, and 95% N2. Parasite populations were synchronized by 5% sorbitol treatment ([Lambros and Vanderberg, 1979]).
(§2) For in vitro–selected lines, drug susceptibility was measured by SYBR Green I–based assay ([Johnson et al., 2007]; [Smilkstein et al., 2004]). Ring-stage parasites were cultured for 72 hr at 1% hematocrit and 1% starting parasitemia in 384-well black clear-bottom plates containing test compounds plated in triplicate in 12-point serial dilutions. Lysis buffer (0.16% w/v saponin, 1.6% Triton X-100, 5 mM EDTA, and 20 mM Tris-HCl, pH 7.4) with SYBR Green I fluorescent dye (Invitrogen) was added, and fluorescence readings were taken (excitation at 494 nm, emission at 530 nm). Alternatively, Dd2-B2 ring-stage cultures at 0.3% parasitemia and 1% hematocrit were exposed for 72 hr to a range of ten drug concentrations that were 2-fold serially diluted in duplicates along with drug-free controls. Parasite survival was assessed by flow cytometry on an Accuri C6 (BD Biosciences) using SYBR Green and MitoTracker Deep Red FM (Life Technologies) as nucleic acid stain and vital dyes respectively. EC50 values were calculated using a nonlinear regression curve fit in Prism Software version 8 (GraphPad).

P. falciparum Dd2-B2 = test: Blood-stage dose-response assay (72 hr), Dd2 / Dd2-B2 parent; type: cell-based; conditions: Plasmodium falciparum, DD2, read-out: Dd2-B2 parent EC50 ± SD (nM)
Experimental: as §1, §2

[1] = tested on: P. falciparum Dd2:A597V (CRISPR edited PfAcAS); test: Blood-stage dose-response assay, CRISPR-edited Dd2:A597V line; type: cell-based; conditions: Plasmodium falciparum, mean ± SD, n bioreplicates
Experimental: as §2
(§3) Mutant PfAcAS-A597V and PfAcAS-T648M parasites were generated using CRISPR/Cas9. The guide RNAs for PfAcAS-A597V (5′-[…]-3′; 5′-[…]-3′) and for PfAcAS-T648M (5′-[…]-3′) were designed using Benchling (https://benchling.com/) to targeting sites in PfAcAS that were 6-14 bp upstream of the A597 codon and 6 bp downstream of the T648 codon respectively. Complementary oligos encoding the gRNA sequences (5′- tatt[…]-3’ / 5’-aaac[…]-3’; 5’-tatt[…]-3’ / 5’-aaac[…]-3’ and 5’- tattg[…]-3’ / 5’-aaac[…]c-3’ ) were phosphorylated using T4 polynucleotide kinase and annealed (95°C for 5 min, then step down of 5°C/min to 25°C) prior to ligation into the BbsI-digested pDC2-coCas9-U6.2-hDHFR plasmid ([Lim et al., 2016]). The donor template for PfAcAS-A597V was synthesized (ThermoFisher) as a 700 bp Genestring fragment spanning position 1468 to 2168 of the PfAcAS gene, and the donor for PfAcAS-T648M synthesized as a 829 bp fragment spanning position 1468 to 2297 and inserted into the AatII/EcoRI sites of the pDC2-coCas9-gRNA-hDHFR plasmid by Gibson assembly. Ring-stage parasites (Dd2) at 5% parasitemia were transfected by electroporation (BioRad Gene Pulser II at 0.310 kV and 950 μF) with 50 μg of each plasmid (plasmid 1: pDC2-coCas9-AcAS-A597V-gRNA1-hDHFR, plasmid 2: pDC2-coCas9-gRNA2-hDHFR, or plasmid 3: pDC2-coCas9-AcAS-T648M-gRNA1-hDHFR), and parasites selected for 10 days with 2.5 nM WR99210 (Jacobus Pharmaceuticals), followed by removal of drug pressure. After confirmation of editing in the bulk culture, clones were isolated by serial limiting dilution and confirmed by Sanger sequencing after PCR amplification from genomic DNA using forward primer 5′-[…]-3′ and reverse primer 5′-[…]-3′ (for A597V) and 5′-[…]-3′ (for T648M).

[2] = tested on: P. falciparum Dd2:T648M (CRISPR edited PfAcAS); test: Blood-stage dose-response assay, CRISPR-edited Dd2:T648M line; type: cell-based; conditions: Plasmodium falciparum, mean ± SD, n bioreplicates
Experimental: as §2, §3

PfAcAS WT = PfAcAS WT (Plasmodium falciparum, UniProt C6KTB4); test: EnzChek assay, recombinant PfAcAS WT (steady-state kinetics and IC50); type: biochemical, P. falciparum
Experimental: (§4) Steady-state kinetic measurements were conducted at room temperature using a PheraStar plate reader (BMG). The first step of the reaction of PfAcAS, which produces inorganic pyrophosphate (PPi) that is converted to two molecules of inorganic phosphate using a pyrophosphatase enzyme, was continuously monitored using the EnzChek Phosphate Assay Kit, which gives an absorbance readout at 360 nm (Figure 4A) ([Webb, 1992]). […] By adding CoA, the reaction rapidly proceeds to the second step resulting in further release of pyrophosphate, making the EnzChek assay a suitable option to continuously monitor the activity of PfAcAS. Typical kinetic assays were carried out in clear, flat-bottom, polystyrene, 384-well plates (Greiner) in an 80 μL reaction volume containing 100 mM HEPES (pH7.4), 100 mM NaCl, 250 mM KCl, 50 mM MgCl2, 1 mM DTT, 0.004% Tween 20, 0.5 U/mL pyrophosphatase, 0.1 mM MESG, 0.5 U/mL PNP, 2 mM ATP, 2 mM acetate, 0.5 mM CoA and 5 nM recombinant PfAcAS WT or 10 nM recombinant PfAcAS A597V or T648M. Assays were performed by adding 40 μL of a 2-times concentrated substrate mixture including MESG to all wells, and the reactions started by adding 40 μL of a 2-times concentrated reaction mixture containing all other components. The reactions were carried out for 2 to 4 hr with absorbance readings at 360 nm every two to four minutes. Reaction rates were extracted from the linear phase of activity, usually using 10 to 20 points between times of 30 and 100 min of the reactions. Using a phosphate standard curve obtained under the same buffer conditions used for the PfAcAS reactions (Figure S5A), the rates were then converted to velocity per second, conversion of one nanomolar of phosphate, per nanomolar of enzyme, per second. The substrates Km values were determined by varying the concentration of one of the substrates at saturating concentration of the other two substrates. Steady-state data were fitted using the nonlinear, least-squares, curve-fitting programs of Sigma-Plot for Windows, version 14.0. Individual saturation curves were fit to Equation 1(Equation 1) v=VS/K+S where V is the maximal velocity, S is the substrate concentration and K is the Michaelis constant for the substrate (Km). Individual saturation curves displaying substrate inhibition were fit to Equation 2(Equation 2) v=VS/K+S×(1+S/Ks) where Ks is the substrate inhibition constant.
(§5) To determine the steady-state inhibition parameters and patterns associated with both inhibitors, PfAcAS activity was studied in the presence of variable concentrations of one substrate, ATP, acetate or CoA, fixed saturating concentration of the other two substrates (acetate and CoA, ATP and CoA, or ATP and acetate) and several fixed concentrations of inhibitor. Assay ready plates containing different concentrations of inhibitor were prepared using an Echo 550 acoustic dispenser (Labcyte Inc.). The assays were carried out as described in the previous section. […] For better comparison between both inhibitors and proteins, the ymin was fixed to zero and the ymax to 100. Inhibition data showing linear, competitive patterns in double-reciprocal plots were fit to Equation 4(Equation 4) v=VS/K(1+I/Ki)+S where Ki is the dissociation constant for the enzyme-inhibitor complex. Inhibition data showing linear, mixed inhibition patterns in double-reciprocal plots were fit to Equation 5(Equation 5) v=VS/K(1+I/Kis)+S(1+I/Kii) where Kis is the dissociation constant for the free enzyme-inhibitor complex and Kii is the dissociation constant for the enzyme-substrate-inhibitor complex. Inhibition data showing linear, uncompetitive patterns in double-reciprocal plots were fit to Equation 6(Equation 6) v=VS/K+S(1+I/Ki)

PfAcAS T648M = target: T1, PfAcAS T648M (Plasmodium falciparum, UniProt C6KTB4, T648M); test: EnzChek assay, recombinant PfAcAS T648M; type: biochemical, P. falciparum; conditions: substrate varied, other two saturating
T1 sequence (C6KTB4 1-997 T648M): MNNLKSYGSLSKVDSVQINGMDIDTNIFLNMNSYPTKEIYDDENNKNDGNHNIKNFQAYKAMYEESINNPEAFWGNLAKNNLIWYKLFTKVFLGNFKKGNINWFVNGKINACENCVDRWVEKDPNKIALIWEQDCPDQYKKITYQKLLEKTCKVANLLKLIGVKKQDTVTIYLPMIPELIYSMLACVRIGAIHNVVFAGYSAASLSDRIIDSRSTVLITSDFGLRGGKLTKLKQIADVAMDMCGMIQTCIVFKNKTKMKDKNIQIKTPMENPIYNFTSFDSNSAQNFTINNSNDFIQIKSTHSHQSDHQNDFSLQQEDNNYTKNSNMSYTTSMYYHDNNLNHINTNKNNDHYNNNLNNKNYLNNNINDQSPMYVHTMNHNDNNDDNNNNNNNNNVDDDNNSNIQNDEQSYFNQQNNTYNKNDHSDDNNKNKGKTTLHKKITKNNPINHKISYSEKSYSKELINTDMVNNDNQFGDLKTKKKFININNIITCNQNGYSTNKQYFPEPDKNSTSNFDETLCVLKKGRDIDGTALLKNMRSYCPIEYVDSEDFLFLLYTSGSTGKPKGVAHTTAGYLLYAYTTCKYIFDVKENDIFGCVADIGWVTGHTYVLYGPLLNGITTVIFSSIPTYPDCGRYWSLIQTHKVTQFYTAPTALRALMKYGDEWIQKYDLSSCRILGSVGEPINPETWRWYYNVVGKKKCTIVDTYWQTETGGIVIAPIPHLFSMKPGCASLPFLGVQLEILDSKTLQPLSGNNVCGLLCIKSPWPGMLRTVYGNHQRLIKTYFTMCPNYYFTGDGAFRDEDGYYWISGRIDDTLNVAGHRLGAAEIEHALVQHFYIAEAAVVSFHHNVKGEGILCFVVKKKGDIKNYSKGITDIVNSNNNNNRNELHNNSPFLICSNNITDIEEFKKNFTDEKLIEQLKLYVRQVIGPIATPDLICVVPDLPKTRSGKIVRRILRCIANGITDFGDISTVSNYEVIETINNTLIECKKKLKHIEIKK
Experimental: as §4, §5

PfAcAS A597V = target: T2, PfAcAS A597V (Plasmodium falciparum, UniProt C6KTB4, A597V); test: EnzChek assay, recombinant PfAcAS A597V; type: biochemical, P. falciparum; conditions: substrate varied, other two saturating
T2 sequence (C6KTB4 1-997 A597V): T1 sequence (C6KTB4 1-997 T648M)
Experimental: as §4, §5

HsAcAS WT = target: T3, HsAcAS WT (Homo sapiens, UniProt Q9NR19); test: HsAcAS Rapid-Fire QQQ mass spectrometry assay; type: biochemical
T3 construct: made in house; host or cells: Expi293 cells (pCDNA 3.1, transient transfection)
T3 sequence (Q9NR19 whole entry): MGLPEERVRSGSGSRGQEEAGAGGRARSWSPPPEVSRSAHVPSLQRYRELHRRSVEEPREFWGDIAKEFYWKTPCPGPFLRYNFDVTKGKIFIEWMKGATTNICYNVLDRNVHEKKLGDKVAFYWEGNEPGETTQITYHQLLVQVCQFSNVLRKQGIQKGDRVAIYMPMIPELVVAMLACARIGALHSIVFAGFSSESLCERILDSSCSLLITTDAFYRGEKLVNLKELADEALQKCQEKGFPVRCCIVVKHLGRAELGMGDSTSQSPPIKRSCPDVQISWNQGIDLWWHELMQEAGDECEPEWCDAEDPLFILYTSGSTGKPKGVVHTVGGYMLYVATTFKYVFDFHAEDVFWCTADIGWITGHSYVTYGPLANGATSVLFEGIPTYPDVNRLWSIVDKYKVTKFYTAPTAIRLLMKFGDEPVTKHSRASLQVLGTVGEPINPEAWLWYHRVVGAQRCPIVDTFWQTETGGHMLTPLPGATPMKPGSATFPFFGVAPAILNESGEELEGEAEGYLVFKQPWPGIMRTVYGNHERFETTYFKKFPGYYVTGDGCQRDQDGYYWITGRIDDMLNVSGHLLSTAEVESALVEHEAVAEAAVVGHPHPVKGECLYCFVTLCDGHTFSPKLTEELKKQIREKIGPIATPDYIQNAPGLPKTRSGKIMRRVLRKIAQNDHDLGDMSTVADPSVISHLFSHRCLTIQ
Experimental: The human form of acetyl-CoA synthetase was assayed in 100 mM HEPES (pH7.4), 100 mM NaCl, 250 mM KCl, 50 mM MgCl2, 1 mM DTT, 0.005% NP40, 400 μM ATP, 70 μM acetate, 40 μM CoA and 2 nM recombinant HsAcAS. Assay ready plates containing different concentrations of inhibitor were prepared using an Echo 550 acoustic dispenser (Labcyte Inc.), dispensing 150 nL of compound per well. Assays were conducted in a total volume of 15 μL for 30 min at room temperature before being quenched with the addition of 85 μL 1% formic acid containing 0.5 μg/mL n-Propionyl coenzyme A (Sigma P5397) as an internal standard. Reaction products were detected using a RapidFire 365 system (Agilent, Santa Clara, CA) coupled with a triple quadrupole mass spectrometer 6740 (Agilent).
The sipper was washed to minimize carryover with 0.1% TFA in deionized water followed by 0.1% TFA in acetonitrile/deionized water (95%/5%, v/v). The sipper was washed to minimize carryover with deionized water followed by acetonitrile. Aspiration time, load/wash time, elution time, and re-equilibration time were set to 600, 3000, 5000, and 500 ms, respectively, with a cycle time of approximately 10 s. The triple-quadrupole mass spectrometer with electrospray ion source was operated in positive multiple reaction monitoring (MRM) mode. The detailed setting for the mass spectrometer parameters was as follows: capillary voltage, 3000 V; gas temperature, 350°C; gas flow, 7 L/min; nebulizer, 40 psi; sheath gas temperature, 300°C′ sheath gas flow, 11 L/min; and nozzle voltage, 1500 V. The MRM transitions for acetyl-CoA as a reaction product were set as 810.1/303.1 & 810.1/428.1 (quantifier & qualifier with dwell time of 50 ms, 100V fragmentor, and collision energies of 30 & 28 eV respectively) and for n-propionyl-CoA as an internal standard as 824.2/317.2 & 824.2/428.0 (quantifier & qualifier with dwell time of 50 ms, 100V fragmentor, and collision energies of 32 & 26 eV respectively). The mass resolution window for both parental and daughter ions was set at as a unit (0.7 Da). Peak areas were integrated, and area ratios of acetyl-CoA to the internal standard (n-propionyl CoA) were used for quantitation. Data were converted to % inhibition relative to the uninhibited enzyme control and fitted to Equation 3.

Row | Structure (SMILES) | EC50 (P. falciparum 3D7-A10) [µM] | EC50 (P. falciparum Dd2-B2) [nM] | EC50 [1] [µM] | EC50 [2] [µM] | Ki (µM), substrate inhibition, PfAcAS WT (PfAcAS WT; substrate inhibition constant) [µM] | Km (PfAcAS WT; substrate varied, other two saturating) [µM] | Km (PfAcAS T648M) [µM] | Km (PfAcAS A597V) [µM] | Vmax (s-1), PfAcAS A597V (PfAcAS A597V) [s⁻¹] | Km (HsAcAS WT; read-out: Km (µM), HsWT) [µM] | Ki (µM), substrate inhibition, HsWT (HsAcAS WT; substrate inhibition constant) [µM]
1 | CCN(CC)Cc1cc(Nc2ccnc3cc(Cl)ccc23)ccc1O [Amodiaquine] | 0.0074 ± 0.0018 | 19 ± 6 | 0.021 ± 0.0025 | 0.02 ± 0.0086 | – | – | – | – | – | – | –
2 | CC(C)(COP(=O)(O)OP(=O)(O)OC[C@H]1O[C@@H](n2cnc3c(N)ncnc32)[C@H](O)[C@@H]1OP(=O)(O)O)[C@@H](O)C(=O)NCCC(=O)NCCS [CoA] | – | – | – | – | 2700 ± 310 | 42 | 82 ± 6 | 61 ± 6 | 0.84 ± 0.05 | 36 ± 5 | 1000 ± 190
